Measured values from US10201510B2, “Compositions and methods for treatment of neurological symptoms associated with alcohol-withdrawal and for convulsive seizure” (Oregon Health & Science University, priority 2005, dated 2019).
pIC50: −log10 of the molar value.

Assays:
ADH = test: Metabolism / substrate recognition by ADH; assay type: in vitro ADME
microsomal FolDH = test: Recognition by microsomal FolDH; assay type: in vitro ADME
[1] = system: withdrawal seizures in alcohol-dependent mice; test: Predicted anti-seizure activity; assay type: in vivo, mouse; design: key: la = long-acting; The ++ farnesol activity was arbitrary; details: for Predicted anti-seizure activity: long-acting (la): duration flag in brackets
[2] = molecular target: T1, neuronal voltage-gated, L-type (Cav1.3) α1D subunit Ca^2+ channel (Rattus norvegicus, UniProt P27732); test: KCl-induced Ca^2+ signaling in fura-2 loaded PC12 cells; assay type: cell-based; details: for block of KCl-induced Ca^2+ signaling: PC12 cells in culture, n=3/group, FIG. 3; for activity on neuronal L-type Ca^2+ channels compared with all-trans farnesol: non-NGF PC12 cells, fura-2, FIG. 1 / FIG. 3
T1 construct: KCl-induced intracellular Ca^2+ signaling in non-NGF treated PC12 cells loaded with fura-2; endogenous in cells; host or cells: PC12 cells (non-NGF treated)
T1 sequence (P27732 whole entry): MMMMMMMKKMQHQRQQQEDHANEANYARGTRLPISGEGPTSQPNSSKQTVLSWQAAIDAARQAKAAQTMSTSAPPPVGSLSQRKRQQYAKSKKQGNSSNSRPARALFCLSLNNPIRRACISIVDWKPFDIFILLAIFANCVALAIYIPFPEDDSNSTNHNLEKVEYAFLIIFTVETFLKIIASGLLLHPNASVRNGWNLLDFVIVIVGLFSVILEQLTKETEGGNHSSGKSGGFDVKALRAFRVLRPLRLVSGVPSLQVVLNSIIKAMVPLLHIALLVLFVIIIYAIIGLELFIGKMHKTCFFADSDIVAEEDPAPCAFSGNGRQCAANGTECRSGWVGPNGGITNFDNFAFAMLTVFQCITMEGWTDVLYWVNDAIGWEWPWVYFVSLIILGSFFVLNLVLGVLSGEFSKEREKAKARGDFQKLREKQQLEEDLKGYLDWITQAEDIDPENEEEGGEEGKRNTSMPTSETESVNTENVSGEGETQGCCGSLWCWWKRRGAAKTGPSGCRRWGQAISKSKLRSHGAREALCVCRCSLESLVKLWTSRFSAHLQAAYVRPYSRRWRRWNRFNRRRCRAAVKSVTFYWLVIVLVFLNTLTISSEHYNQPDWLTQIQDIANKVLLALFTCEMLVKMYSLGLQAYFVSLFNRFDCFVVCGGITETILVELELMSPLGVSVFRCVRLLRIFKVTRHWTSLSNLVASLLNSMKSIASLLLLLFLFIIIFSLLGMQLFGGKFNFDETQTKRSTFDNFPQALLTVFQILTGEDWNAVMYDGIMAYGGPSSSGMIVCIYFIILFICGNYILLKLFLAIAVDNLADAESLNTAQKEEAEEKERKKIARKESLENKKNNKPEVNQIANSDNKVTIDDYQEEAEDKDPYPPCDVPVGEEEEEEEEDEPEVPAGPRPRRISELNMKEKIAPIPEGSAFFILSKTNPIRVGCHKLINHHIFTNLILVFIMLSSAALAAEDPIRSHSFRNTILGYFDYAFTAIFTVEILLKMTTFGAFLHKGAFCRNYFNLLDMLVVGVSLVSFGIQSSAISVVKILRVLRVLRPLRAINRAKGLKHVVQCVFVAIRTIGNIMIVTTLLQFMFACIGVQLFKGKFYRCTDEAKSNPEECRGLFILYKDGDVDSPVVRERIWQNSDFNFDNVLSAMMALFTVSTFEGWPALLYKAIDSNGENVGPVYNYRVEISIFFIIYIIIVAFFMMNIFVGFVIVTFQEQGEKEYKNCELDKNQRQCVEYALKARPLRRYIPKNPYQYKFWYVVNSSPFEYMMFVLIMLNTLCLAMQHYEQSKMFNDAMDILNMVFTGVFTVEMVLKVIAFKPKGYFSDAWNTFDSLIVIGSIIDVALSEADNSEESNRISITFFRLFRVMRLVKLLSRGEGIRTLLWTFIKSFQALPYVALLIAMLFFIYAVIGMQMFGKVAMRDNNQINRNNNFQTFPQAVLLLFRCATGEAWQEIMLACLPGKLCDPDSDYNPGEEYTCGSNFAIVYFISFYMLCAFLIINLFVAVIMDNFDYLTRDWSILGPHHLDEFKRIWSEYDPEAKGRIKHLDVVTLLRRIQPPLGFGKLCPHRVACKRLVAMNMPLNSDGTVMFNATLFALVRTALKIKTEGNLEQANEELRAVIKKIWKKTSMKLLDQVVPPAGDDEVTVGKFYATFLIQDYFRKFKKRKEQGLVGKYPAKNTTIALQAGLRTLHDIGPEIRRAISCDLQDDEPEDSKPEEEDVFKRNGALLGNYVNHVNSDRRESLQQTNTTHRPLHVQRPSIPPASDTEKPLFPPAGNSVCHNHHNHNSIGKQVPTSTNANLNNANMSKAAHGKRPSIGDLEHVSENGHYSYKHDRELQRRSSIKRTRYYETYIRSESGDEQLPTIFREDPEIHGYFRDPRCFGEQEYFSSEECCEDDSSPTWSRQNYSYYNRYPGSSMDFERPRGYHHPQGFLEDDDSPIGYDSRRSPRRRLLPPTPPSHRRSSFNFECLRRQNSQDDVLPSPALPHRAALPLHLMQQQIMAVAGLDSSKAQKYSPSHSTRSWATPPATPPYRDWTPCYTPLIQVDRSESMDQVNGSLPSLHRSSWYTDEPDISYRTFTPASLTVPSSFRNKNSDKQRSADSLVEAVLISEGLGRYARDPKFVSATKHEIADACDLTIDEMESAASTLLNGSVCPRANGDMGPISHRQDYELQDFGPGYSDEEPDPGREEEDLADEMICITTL
T1 sequence (P54290 25-944 partner limits assumed): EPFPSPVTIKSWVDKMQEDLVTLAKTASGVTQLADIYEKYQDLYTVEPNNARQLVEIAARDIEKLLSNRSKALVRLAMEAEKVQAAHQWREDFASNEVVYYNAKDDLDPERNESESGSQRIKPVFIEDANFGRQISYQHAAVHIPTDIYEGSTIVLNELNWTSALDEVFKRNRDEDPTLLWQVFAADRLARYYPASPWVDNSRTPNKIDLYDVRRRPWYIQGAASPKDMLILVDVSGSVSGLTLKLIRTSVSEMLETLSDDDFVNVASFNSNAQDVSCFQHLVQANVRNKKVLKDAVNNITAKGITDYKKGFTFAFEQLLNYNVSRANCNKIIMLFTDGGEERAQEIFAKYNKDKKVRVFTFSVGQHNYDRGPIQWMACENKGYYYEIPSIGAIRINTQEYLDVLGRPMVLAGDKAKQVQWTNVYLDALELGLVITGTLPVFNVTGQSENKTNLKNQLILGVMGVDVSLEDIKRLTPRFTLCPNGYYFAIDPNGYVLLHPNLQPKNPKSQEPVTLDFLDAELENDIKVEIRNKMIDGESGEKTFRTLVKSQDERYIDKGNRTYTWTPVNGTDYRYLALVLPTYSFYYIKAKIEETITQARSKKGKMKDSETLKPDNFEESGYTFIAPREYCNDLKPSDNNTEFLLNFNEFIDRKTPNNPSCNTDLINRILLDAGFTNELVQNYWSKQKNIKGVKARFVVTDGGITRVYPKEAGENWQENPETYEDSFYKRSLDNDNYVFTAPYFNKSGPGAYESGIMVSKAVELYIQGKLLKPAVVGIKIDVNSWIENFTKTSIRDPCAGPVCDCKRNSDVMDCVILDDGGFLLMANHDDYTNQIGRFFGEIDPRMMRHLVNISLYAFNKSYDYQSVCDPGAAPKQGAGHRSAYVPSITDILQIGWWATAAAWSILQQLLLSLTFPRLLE
T1 sequence (P54290 945-1091 partner limits assumed): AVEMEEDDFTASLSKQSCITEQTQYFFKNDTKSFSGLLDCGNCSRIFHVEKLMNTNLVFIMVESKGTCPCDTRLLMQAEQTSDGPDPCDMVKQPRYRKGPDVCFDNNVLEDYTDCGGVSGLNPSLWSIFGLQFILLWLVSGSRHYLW
Description: According to particular aspects of the present invention, the alcohol group is essential for activity. Additionally, the activity of farnesol metabolites on neuronal voltage-gated L-type Ca^2+ channels was investigated. […] The Ca^2+ channel activity is expressed as % inhibition of KCl-induced intracellular Ca^2+ signaling in non-NGF differentiated PC12 cells loaded with fura-2 (see Materials and Methods under Example 2). The assayed molecules are: FPP—farnesyl pyrophosphate; FOH—all-trans farnesol; FCHO—all-trans farnesal; and FCOOH—all-trans farnesoic acid (prepared by Dr. McDougal).
(§1) To identify compounds with enhanced L-type Ca^2+ channel blocker activity, several compounds were either purchased or synthesized, and then tested for their ability to inhibit: (1) KCl-induced contraction in isolated arteries; (2) KCl-induced Ca^2+ signaling in fura-2 loaded arteries; and (3) KCl-induced Ca^2+ signaling in fura-2 loaded PC12 cells, all using art-recognized methods established in the applicants' laboratories (Roullet, 1993, 1994, 1995, 1997; De Lima, 1999). Arteries express smooth muscle voltage-gated, L-type (Cav1.2 or α1C subunit) Ca^2+ channels, whereas PC12 cells constitutively express the neuronal voltage-gated, L-type (Cav1.3) α1D subunit (Ertel, 2000).
Ca^2+ channel activity is expressed as % inhibition of KCl-induced intracellular Ca^2+ signaling in non-NGF treated PC12 cells loaded with fura-2.

DBA/2J mice = assay type: in vivo, mouse
Experimental: experiments were conducted in two mouse strains: Withdrawal Seizure Prone replicate 1 (WSP1); and DBA/2J. WSP1 mice have been selectively bred for their high sensitivity to ethanol and enhanced expression of alcohol withdrawal seizures (Kosobud, 1995; Metten, 1996). DBA/J2 mice also have pronounced alcohol withdrawal symptoms following either chronic treatment or a single injection of a hypnotic dose of alcohol (Crabbe, 1983; Metten, 1994; Crabbe & Metten, in preparation), but are sometimes preferred to the WSP1 mice for the screening of anti-AWS drugs, because of their lower basal level of convulsions (in the absence of alcohol).
DBA/2J mice (males and females; mean BW=23 g; n=44) were injected intra peritoneally (i.p.) with a loading dose of 1.5 g/kg ethanol (20% v/v saline solution) and with 68.1 mg/kg pyrazole hydrochloride, and then placed for 72 h into inhalation chambers (3-4 animals/cage) set at 5 mg ethanol/L air (Guppy, 1995; Crabbe, 1998). The animals were removed from the chambers after 24 and 48 h, and re-injected with pyrazole. The pyrazole injections are necessary to reduce mortality and heterogeneity in withdrawal reactions (Goldstein, 1972). A second group of animals matched for BW and sex (n=32), were housed under normal (‘air-breathing’) conditions and served as pyrazole-injected controls. All animals had free access to food and water and were housed with a 12 hr day-night light cycle. Upon withdrawal from the chambers (t=0), body weight was determined and a tail blood sample was collected for the determination of blood alcohol concentration (BEC, alcohol-treated animals only; Crabbe, 1998). […] Injections were made either 3 hours (GROUP A) or 6 hours (GROUP B) after withdrawal (approximately half of the animals were used in each group). These time points were chosen to precede peak withdrawal (GROUP A at 3 hours) as it begins to ascend above control levels to determine whether farnesol would prevent withdrawal, and to treat withdrawal at its peak (GROUP B at 6 hours). HICs were scored hourly until injections (0 to 3 h for GROUP A and 0 to 6 h for GROUP B). Immediately after HIC scoring at the hour-3 or hour-6 time points, the animals were injected with farnesol or vehicle, and scored 10, 20, 30 and 40 minutes later. The hourly scoring was then resumed at either 4 hours or 7 hours, and continued to the 10-hour time point.

[3] = molecular target: T2, voltage-gated L-type Ca^2+ channels (Homo sapiens, UniProt Q13936); details: cited from earlier work
T2 construct: host or cells: arteries / vascular smooth muscle cells

WSP1 mice = test: Acute ethanol withdrawal HIC scoring in WSP1 mice; assay type: in vivo, mouse
Experimental: experiments were conducted in two mouse strains: […], 1994; Crabbe & […], in preparation), but are sometimes preferred to the WSP1 mice for the screening of anti-AWS drugs, because of their lower basal level of convulsions (in the absence of alcohol). […] Immediately after the hour-7 time point HIC score (a time of maximal withdrawal in this strain), animals were injected with either 200 mg/kg farnesol (suspension in saline containing 3 g/l bovine serum albumin) or vehicle, and scored 8, 16, 24, 32, 40, 48 and 56 minutes later using a scale from 0 to 7 (Crabbe, 1991; scoring scale shown in TABLE 1). The time course was then resumed (animals were scored at hour 8, etc.).

[4] = molecular target: T3, R-type Ca^2+ channels (α1E) (Homo sapiens, UniProt Q15878); details: micromolar concentration; cited from earlier work
T3 construct: host or cells: HEK cells

[5] = system: pentylenetetrazole-induced seizures; details: in vivo; cited from earlier work
[6] = molecular target: T4, cardiac L-type Ca^2+ channels (α1C) (Homo sapiens, UniProt Q13936); details: micromolar concentration; cited from earlier work
T4 construct: host or cells: HEK cells

[7] = molecular target: T5, P/Q-type Ca^2+ channels (α1A) (Homo sapiens, UniProt O00555); details: micromolar concentration; cited from earlier work
T5 construct: host or cells: HEK cells

[8] = molecular target: T6, N-type Ca^2+ channel (α1B) (Homo sapiens, UniProt Q00975); details: cited from earlier work
T6 construct: host or cells: HEK cells

[9] = molecular target: T1, neuronal voltage-gated, L-type (Cav1.3) α1D subunit Ca^2+ channel; details: PC12 cells; cited from earlier work
[10] = molecular target: T7, smooth muscle voltage-gated, L-type (Cav1.2 or α1C subunit) Ca^2+ channels (Mus musculus, UniProt Q01815); test: KCl-induced contraction in isolated arteries; details: FIG. 5 / FIG. 6 (25 μM)
T7 construct: KCl-induced contraction in isolated arteries; from tissue; host or cells: mouse mesenteric arteries
Experimental: Contractions obtained after 30 min. incubation with the test compounds (left portion of graph), and after a 60-min. wash-out (right portion of graph).
as §1

## C=CC(C)(O)CCC=C(C)CCC=C(C)C (mixture of isomers) [Nerolidol, (E)-3,7,11-trimethyldodeca-1,6,10-trien-3-ol]
ADH
  substrate for ADH: not a substrate for ADH
Microsomal FolDH
  recognition by microsomal FolDH: not recognized by microsomal FolDH
[1]
  Predicted anti-seizure activity: long-acting (la): la
[2]
  block of KCl-induced Ca^2+ signaling: ~85%

## CC(C)=CCC/C(C)=C/CC/C(C)=C/CO [All-trans farnesol, (2E,6E)-3,7,11-trimethyldodeca-2,6,10-trien-1-ol]
DBA/2J mice; 300 mg/kg i.p., injected 3 hours after withdrawal
  Percent seizure reduction, GROUP A: 99%
DBA/2J mice; 300 mg/kg i.p., injected 6 hours after withdrawal
  Percent seizure reduction, GROUP B: 78%
DBA/2J mice; 300 mg/kg i.p., pyrazole-injected controls
  effect on HIC scores in ‘air-breathing’ animals: no significant effect
DBA/2J mice; at 50 mg/kg, worded "Preferably"
  effect on HICs in withdrawing animals, 50 mg/kg: no effect
DBA/2J mice; dose of 300 mg/kg
  effect on HICs in withdrawing animals, 300 mg/kg: suppresses almost completely
DBA/2J mice; mouse, in vivo
  death after injections: No death
  duration of the farnesol effect: approximately 1 hour
  toxicity of the dose inducing complete seizure suppression: non toxic
[3]; reversible and dose-dependent, read-out: IC50, effect on arteries
  pIC50: ~5.70
WSP1 mice; 200 mg/kg
  reduction in peak ethanol withdrawal: ~56%
WSP1 mice; 200 mg/kg after hour 7, average of 24, 32 and 40 minute scores, scale 0 to 7
  peak withdrawal effect (HIC score): 2.67±0.29
WSP1 mice; 200 mg/kg, after injection at hour 7
  time point of maximum effect: 32 min
WSP1 mice; 200 mg/kg, preliminary experiments
  effect on basal HICs in naïve WSP1 mice: tended to reduce basal HICs
[1]; based on effect on L-type Ca^2+ channels, CLogP and reversibility or ADH-FolDH recognition
  Predicted anti-seizure activity: ++
[2]
  block of KCl-induced Ca^2+ signaling: 65%
[4]
  activity on R-type Ca^2+ channels: inactive
[5]
  prevention of pentylenetetrazole-induced seizures: not prevent
[6]
  activity on cardiac L-type Ca^2+ channels: inhibits
[7]
  activity on P/Q-type Ca^2+ channels: inactive
[8]; at 250 nM farnesol, typical neuronal resting membrane potential
  block of the N-type channel: ~50%
[8]; micromolar concentration
  activity on N-type Ca^2+ channels: inhibits
[9]
  activity on neuronal L-type Ca^2+ channels (literature / prior studies): inhibits

## CC(C)=CCCC(C)=CCCC(C)=CC=O [FCHO, all-trans farnesal, reference compound]
[2]
  activity on neuronal L-type Ca^2+ channels compared with all-trans farnesol: significantly less activity than FOH

## CC(C)=CCCC(C)=CCCC(C)=CCBr [Farnesyl bromide]
[10]
  activity on KCl-induced arterial contraction: did not showed significant activity

## CC(C)=CCC/C(C)=C/CC/C(=C\CO)C(F)(F)F [Trifluorofarnesol, (2E,6E)-,7,11-dimethyl-3-(trifluoromethyl)dodeca-2,6,10-trien-1-ol]
[1]
  Predicted anti-seizure activity: long-acting (la): la

## CC(C)=CCC/C(C)=C/CC/C(C)=C/C(=O)O [farnesoic acid, all-trans farnesoic acid, reference compound]
[2]
  activity on neuronal L-type Ca^2+ channels compared with all-trans farnesol: substantially inactive

## CC(=O)OCC=C(C)CCC=C(C)CCC=C(C)C [farnesyl acetate]
[10]
  activity on KCl-induced arterial contraction: did not showed significant activity

## COCC=C(C)CCC=C(C)CCC=C(C)C [farnesyl methyl ether]
[10]
  activity on KCl-induced arterial contraction: did not showed significant activity

## CC(C)=CCC/C(C)=C/CC/C(C)=C/COP(=O)(O)OP(=O)(O)O [farnesyl-PP, farnesyl pyrophosphate, reference compound]
[2]
  activity on neuronal L-type Ca^2+ channels compared with all-trans farnesol: substantially inactive

## CC(=O)CCC=C(C)CCC=C(C)CCC=C(C)C [farnesylacetone]
[10]
  activity on KCl-induced arterial contraction: did not showed significant activity

## CC(C)=CCC/C(C)=C/CO [geraniol, reference compound]
[3]
  activity on Ca^2+ channels / smooth muscle L-type channels (literature / prior studies): inactive

## CC(C)=CCC/C(C)=C/CC/C(C)=C/CC/C(C)=C/CO [geranylgeraniol, reference compound]
[3]
  activity on Ca^2+ channels / smooth muscle L-type channels (literature / prior studies): inactive

## CC(C)=CCC/C(C)=C/CC/C(C)=C\CO [“Cis” farnesol, (2Z,6E)-3,7,11-trimethyldodeca-2,6,10-trien-1-ol]
ADH
  catalytic efficiency of ADH, lower than toward all-trans farnesol: approximately 10 fold
[10]
  activity on KCl-induced arterial contraction: significantly more active
[2]
  activity on neuronal L-type Ca^2+ channels compared with all-trans farnesol: significantly more active
